Laboratory results: patent publication US8431559B2, “Treatment of hot flashes” (priority 2008, dated 2013)
Read-outs that look alike come from different tables or passages of the source.

Legend:
[1] = system: rats, mice, rabbits and dogs; experiment: Acute and multidose (28 day) toxicity studies, intranasal and intravenous; assay type: in vivo; conditions: single intranasal up to 100 μg/rat, 400 μg/rabbit, 600 μg/dog; repeated up to 50 μg/rat/day, 300 μg/dog/day; intravenous single and repeated up to 2.5 mg/kg
[2] = Ames reverse mutation assay; assay type: cell-based
bone marrow = experiment: in vivo bone marrow micronucleus test
pregnant rabbits = experiment: Reproductive toxicity studies in pregnant rabbits; assay type: in vivo; conditions: intravenous doses up to 2.5 mg/kg/day during the period of organogenesis
[3] = Preclinical pharmacokinetic studies, intranasal doses; assay type: in vivo; conditions: repeated or single escalating intranasal doses up to 100 μg/rat, 400 μg/rabbit, 600 μg/dog
[4] = Preclinical pharmacokinetic studies, intravenous doses; assay type: in vivo, rats, rabbits, or dogs; conditions: single repeated intravenous doses up to 2.5 mg/kg
[5] = system: women of reproductive age; experiment: Intranasal spray 500 nanograms in 14 women of reproductive age, autonomic and physiologic effects vs vehicle; assay type: in vivo, human; conditions: 500 nanograms intranasal, compared to the vehicle
[6] = system: women of reproductive age; experiment: Intranasal spray 1600 nanograms in women of reproductive age, core body temperature and sympathoadrenergic tone; assay type: in vivo, human; conditions: 1600 nanograms intranasal
Description: In another test also in women of reproductive age, intranasal delivery of a nasal spray containing 1600 nanograms of 16α,17α-epoxy-10β-hydroxyestr-4-en-3-one (one administration per nostril by a Valois intranasal spray pump of 50 μL of an aqueous solution of 16 μg/mL 16α,17α-epoxy-10β-hydroxyestr-4-en-3-one with 2% propylene glycol and 2% ethanol) caused a rapid (0.5 to 4 minute latency) decrease in core body temperature of 1±0.23° C. that persisted for 9±2.5 minutes.

hot flashes [7] = conditions: crossover analysis; cited from earlier work
hot flashes [8] = conditions: vs. 29% for placebo; cited from earlier work
hot flashes [9] = conditions: placebo response rate 37.8%, cited from earlier work
hot flashes [10] = conditions: cited from earlier work
hot flashes [11] = conditions: oral and transdermal clonidine; cited from earlier work
hot flashes [12] = conditions: 27% for placebo, cited from earlier work

Structure (SMILES): C[C@]12CC[C@H]3[C@@H](CCC4=CC(=O)CC[C@@]43O)[C@@H]1C[C@H]1O[C@H]12 [16α,17α-epoxy-10β-hydroxyestr-4-en-3-one, 16α,17α-Epoxy-10β-hydroxyestr-4-en-3-one]
- tolerability (deaths, adverse clinical signs, effects on laboratory or pathology parameters) [1]: well tolerated in all species tested
- mutagenic or clastogenic potential [2]: no evidence of mutagenic or clastogenic potential
- mutagenic or clastogenic potential (bone marrow): no evidence of mutagenic or clastogenic potential
- effects on maternal or litter parameters (pregnant rabbits): no adverse effects on maternal or litter parameters
- systemic exposure [3]: very low systemic exposure
- plasma concentrations [4]: generally were dose-proportional and decreased rapidly
- cardiac frequency [5]: not statistically significant increase
- core body temperature [5]: statistically significant decreases
- electrodermal activity (skin conductance) [5]: statistically significant decreases
- electromyographic activity [5]: statistically significant decreases
- respiratory frequency [5]: statistically significant decreases
- vagal tone [5]: statistically significant increases
- decrease in core body temperature [6]: 1±0.23 °C
- persistence of decrease in core body temperature [6]: 9 ± 2.5 min
- time to reduced tone of the sympathoadrenergic system (physiologic sinus arrhythmia) [6]: ≤ 5 minutes

Structure (SMILES): CNCCC(Oc1ccc(C(F)(F)F)cc1)c1ccccc1 (stereo not drawn) [Fluoxetine]
- reduction in hot flash frequency over the placebo condition (hot flashes [7]): ~20%

Structure (SMILES): NCC1(CC(=O)O)CCCCC1 [Gabapentin]
- reduction of hot flash frequency (hot flashes [8]): 45%

Structure (SMILES): Fc1ccc([C@@H]2CCNC[C@H]2COc2ccc3c(c2)OCO3)cc1 [Paroxetine]
- decrease of hot flash composite scores (hot flashes [9]; 12.5 mg/day): 62%
- decrease of hot flash composite scores (hot flashes [9]; 25.0 mg/day): 65%

Structure (SMILES): Clc1cccc(Cl)c1N=C1NCCN1 [clonidine, Clonidine]
- reduction of hot flash frequency (hot flashes [10]; oral clonidine): 46%
- reduction of hot flash frequency (hot flashes [10]; transdermal clonidine): 80%
- reductions in hot flash frequency compared with placebo (hot flashes [11]): smaller, but significant reductions

Structure (SMILES): COc1ccc(C(CN(C)C)C2(O)CCCCC2)cc1 (stereo not drawn) [venlafaxine, Venlafaxine]
- reduction of hot flash scores from baseline (hot flashes [12]; 37.5 mg/day): 37%
- reduction of hot flash scores from baseline (hot flashes [12]; 75 and 150 mg/day): 60%
